Tested on: MCF7
Assay: In vitro cytotoxicity against MCF-7 human mammary carcinoma cells
Type: functional, cell-based

SMILES | IC50 [µM]
CC(=O)Nc1ccc(-c2nc3ccc(O)cc3s2)cc1Cl | 71.2
Nc1ccc(-c2nc3c(O)cccc3s2)cc1Cl | 61.4
Nc1ccc(-c2nc3cc(O)ccc3s2)cc1 | > 100
CC(=O)ON(C(C)=O)c1ccc(-c2nc3ccccc3s2)cc1C | 0.055
CC(=O)Nc1ccc(-c2nc3ccc(O)cc3s2)cc1C | 46.1
Cc1cc(-c2nc3c(O)cccc3s2)ccc1N | > 100
